Results on nine molecules are retold here after US20160000066A1, “Furfural derivatives as a vehicle” (priority 2013, published 2016).

Format in all cases: physicochemical
Series [1] in a line: Solubilization of resins in the test solvent: BADGE DER 331. To be noted: BADGE DER 331 in the compound as solvent. The procedure: (§1) The following table lists the solubilities obtained for four resins tested: BADGE DER 331 epoxy resin sold by DOW CHEMICAL, Palatal A400-01 polyester resin sold by DSM, Novolac DEN 425 epoxy resin sold by DOW CHEMICAL and TGPA resin available from Sigma Aldrich.
(§2) A single solubility test was carried out per solvent/resin pair, at a working concentration of 100 g/l, at ambient temperature. The tests were carried out on the milliliter scale (i.e., 0.5 g/5 ml). The tests are carried out in transparent glass flasks. The resin (0.5 g) is weighed into the flask and then the required volume (5 ml) of test solvent is introduced into this same flask. Stirring is carried out using a vortex mixer for 1 to 5 minutes. The results for solubility of the resins in the solvents tested, shown in the table below, are obtained by visual observations.

Series [2] is described as follows: Solubilization of resins in the test solvent: Palatal A400-01. Conditions: Palatal A400-01 in the compound as solvent. The method, then:
as §1, §2

Series [3] can be described thus: Solubilization of resins in the test solvent: Novolac DEN 425. Conditions: Novolac DEN 425 in the compound as solvent. The procedure:
as §1, §2

Series [4] is described as follows: Solubilization of resins in the test solvent: TGPA. To be noted: TGPA in the compound as solvent, visual. The method, then:
as §1, §2

[5] abbreviates: adjusted protocol: solvent heated on a water bath at 30° C. before the test.

For the molecule `COC(=O)c1ccco1` [(8)], the “Solubility at ambient temperature (100 g/l)” value (from here on “Solubility”) in series [1] (ambient temperature, visual) is “Soluble”; in series [2] (ambient temperature, visual), “Soluble”; in series [3] (ambient temperature, visual), “Soluble”; in series [4], “Soluble”.

With `CCCOC(=O)c1ccco1` [(6)], the “Solubility” value in series [1] (ambient temperature, visual) is recorded as “Partial”; in series [2] (ambient temperature, visual), “Soluble”; in series [3] (ambient temperature, visual), “Soluble”.

As to `CC(=O)/C=C/c1ccco1` [(1)], the “Solubility” value in series [1] (setting [5]), in series [2] (setting [5]) and in series [3] (setting [5]) was “Soluble*” throughout.

For `CCCCN=Cc1ccco1` [(15)], the “Solubility” value in series [1] (ambient temperature, visual) is reported as “Partial”; in series [2] (ambient temperature, visual), “Soluble”; in series [3] (ambient temperature, visual), “Soluble”; in series [4], “Soluble”.

As to `CC(C)C(=O)/C=C/c1ccco1` [(3)], the “Solubility” value in series [1] (ambient temperature, visual) was “Soluble”; in series [2] (ambient temperature, visual), “Soluble”; in series [3] (ambient temperature, visual), “Soluble”; in series [4], “Soluble”.

On to `CCCCCOC(=O)c1ccco1` [(9)], for which the “Solubility” value in series [1] (ambient temperature, visual) is listed as “Soluble”; in series [2] (ambient temperature, visual), “Soluble”; in series [3] (ambient temperature, visual), “Soluble”; in series [4], “Soluble”.

As for `O=C(OCCc1ccccc1)c1ccco1` [(10)], the “Solubility” value is recorded as “Soluble” in series [1] (ambient temperature, visual); “Soluble” in series [2] (ambient temperature, visual); “Soluble” in series [3] (ambient temperature, visual); “Soluble” in series [4].

For the molecule `Cc1ccc(C=O)o1` [(17)], the “Solubility” value in series [1] (ambient temperature, visual) is listed as “Soluble”; in series [2] (ambient temperature, visual), “Soluble”; in series [3] (ambient temperature, visual), “Soluble”; in series [4] it was “Soluble”.

For the molecule `CCCCCCCCN=Cc1ccco1` [(16)], the “Solubility” value is recorded as “Partial” in series [1] (ambient temperature, visual); “Soluble” in series [2] (ambient temperature, visual); “Soluble” in series [3] (ambient temperature, visual); “Soluble” in series [4].
